Test results as given in patent US9187544B2, “Peptide modulators of angiogenesis and use thereof” (The Johns Hopkins University, priority 2007, dated 2015).

Tested on: NCI H82 lung carcinoma cell line tumor xenografts
Experiment: In vivo tumor xenograft model
Settings: female nude mice, 12 days, monotherapy
Experimental: To characterize the functional effects of anti-angiogenic peptides in mouse models, tumor xenografts were generated in female nude mice using the NCI H82 lung carcinoma cell line. This cell line was chosen because its aggressiveness results in rapid tumor growth. Three peptides, a collagen derived, a CXC chemokine derived and a TSP1 containing protein derived peptide were administered once a day, intraperitoneally (i.p.), at doses 10 and 20 mg/kg/day, in a 200 microliter solution injection as individual agents and as a combination. The CXC protein GRO-α/CXCL1 derived peptide (human sequence: […] (SEQ ID NO: 2445); mouse sequence: […] (SEQ ID NO: 2441)), the TSP1 repeat-containing protein WISP-1 derived peptide (human sequence: GPWEPCSVTCSKGTRTRRR (SEQ ID NO: 2444); mouse sequence: GPWGPCSVTCSKGTQIRQR (SEQ ID NO: 2440)), and the type IV collagen alpha5 fibril derived peptide (human sequence: […] (SEQ ID NO: 2442) is the same as mouse sequence: […] (SEQ ID NO: 2443)). An equivalent volume of PBS was injected as control. The injections were repeated for 12 days.
A population of 10^6 cells were washed twice in PBS and gently resuspended to generate a single cell suspension. The cells were mixed with Matrigel (BD Biosciences) in a final 60% cell solution. Subsequently, the cells were injected into the flank area of immunosuppressed nude mice in a total volume of 100 μl. Following growth incubation of 5 to 6 days, the tumor size volume was calculated by measurements of tumor dimensions with calipers. Tumor growth was monitored to an initial average size of 100 mm^3, which developed within 6 days after inoculation. Peptides were administered once a day, intraperitoneally (i.p.), in doses of 10 mg/kg and 20 mg/kg. In the case of testing a combination each peptide was injected in a two day cycle of a different peptide per day. Equivalent volume of PBS solution was injected as control. The injections were continued for up to […]. A total of six animals per group were used for the experiments per peptide per concentration.

In the case of GPWEPCSVTCSKGTRTRRR, the “development of tumors (tumor volume)” value (10 mg/kg/day i.p. once a day) is reported as “suppressed the development of tumors” and the “development of tumors (tumor volume)” value (20 mg/kg/day i.p. once a day) is reported as “suppressed the development of tumors”.

For LRRFSTMPFMFCNINNVCNF, the “development of tumors (tumor volume)” value (10 mg/kg/day i.p. once a day) was “suppressed the development of tumors” and the “development of tumors (tumor volume)” value (20 mg/kg/day i.p. once a day) was “suppressed the development of tumors”.

In the case of “NGRKACLNPASPIVKKIIEKMLNS [CXC protein GRO-α/CXCL1 derived peptide]”, the “development of tumors (tumor volume)” value (10 mg/kg/day i.p. once a day) is reported as “suppressed the development of tumors” and the “development of tumors (tumor volume)” value (20 mg/kg/day i.p. once a day) is reported as “suppressed the development of tumors”.
